≈ marks a conversion by molar mass, not a printed value.
What was measured:
[1] = tested on: Northern house mosquitoes; assay: knock-down test of oil sprays on Northern house mosquito adults in (70 cm)^3 glass chamber (Experimental Example 2); type: in vivo
Method: The present compounds (1), (6), (20), (22), (23), (25), (27), (29), (30), (31), (39), (42), (43), (45), (49), (53), (56), (62), (64), (78), (81), (83), (85), (87), (88) and (89), and chrysanthemic acid esters and pyrethric acid esters corresponding thereto were individually formulated by use of deodorized kerosene into oil sprays of various test concentrations.
About 20 adults of Northern house mosquitoes were liberated in a (70 cm)^3 glass chamber, and 0.7 ml. of each of the oil sprays was sprayed into the chamber under a pressure of 1.5 kg/cm^2 by use of a glass atomizer. Subsequently, the number of knocked-down mosquitoes was counted to calculate the KT50 (50 percent knock down time) of each compound.

house flies = assay: Campbell's turn table oil spray test on house fly adults (Experimental Example 1); type: in vivo; settings: Musca domestica, 24 h, oil spray 5 ml, 10 min exposure, mortality after 1 day, read-out: LC50 (50 percent lethal concentration)
Method: The present compounds (1), (4), (8), (10), (14), (15), (20), (22), (32), (36), (38), (41), (44), (48), (50), (51), (52), (53), (61), (66), (68), (72), (73), (78), (80), (81), (90), (93) and (96), and chrysanthemic acid esters and pyrethric acid esters corresponding thereto were individually formulated by use of deodorized kerosene into oil sprays of various test concentrations.
Using the Campbell's turn table [disclosed in "Soap & Sanitary Chemicals," Vol. 14, No. 6, page 119 (1938)], 5 ml. of each of the oil sprays was sprayed. When 20 seconds had elapsed after the spraying, the shutter was opened, and adults of house flies (a group of about 100 flies) were exposed to the settling mist for 10 minutes and then transferred to an observation cage.
The above operation was repeated several times to measure the LC50 (50 percent lethal concentration) of each compound.

[2] = concentration of oil spray 0.1%
[3] = concentration of oil spray 0.2%

Row | Structure (SMILES) | KT50 (50 percent knock down time) [1, 2] | LC50 (house flies) | KT50 (50 percent knock down time) [1, 3]
1 | C#CCC1=C(C)C(OC(=O)C2C(C=C(C)C=C)C2(C)C)CC1=O (centres unmarked) [Present compound (25), 2-propargyl-3-methyl-2-cyclopentene-1-one-4-yl 2',2'-dimethyl-3'-(2"-methyl-1",3"-butadienyl)-cyclopropanecarboxylate] | 190 s |  | 
2 | C=CC=CC1C(C(=O)OC(C#N)c2cccc(Oc3cccc(C)c3)c2)C1(C)C (stereo not drawn) [Present compound (96), 3-(m-Tolyloxy)-α-cyanobenzyl 2',2'-dimethyl-3'-(1",3"-butadienyl)-cyclopropanecarboxylate] |  | 60 µg/mL (≈ 155 µM) | 
3 | COC(=O)C(C)=CC1C(C(=O)OCc2cccc(Oc3ccccc3)c2)C1(C)C (centres unmarked) [3-Phenoxybenzyl pyrethrate, reference compound] |  | 1250 µg/mL (≈ 3170 µM) | 
4 | C=CCC1=C(C)C(OC(=O)C2C(C=C(C)C=C)C2(C)C)CC1=O (centres unmarked) [Present compound (23), 2-Allyl-3-methyl-2-cyclopentene-1-one-4-yl 2',2'-dimethyl-3'-(2"-methyl-1",3"-butadienyl)-cyclopropanecarboxylate] |  |  | 152 s
5 | CC(C)=CC1C(C(=O)OCN2C(=O)C3=C(CC=CC3)C2=O)C1(C)C (centres unmarked) [3,6-Dihydrophthalimidomethyl chrysanthemate, reference compound] | 107 s |  | 
6 | CC(C)=CC1C(C(=O)OCN2C(=O)c3ccccc3C2=S)C1(C)C (centres unmarked) [Monothiophthalimidomethyl chrysanthemate, reference compound] |  |  | 207 s
7 | COC(=O)C(C)=CC1C(C(=O)OCc2coc(Cc3ccccc3)c2)C1(C)C (centres unmarked) [5-Benzyl-3-furylmethyl pyrethrate, reference compound] |  | 890 µg/mL (≈ 2330 µM) | 182 s
8 | C=CCC1=C(C)C(OC(=O)C2C(C=C(C)C(=O)OC)C2(C)C)CC1=O (centres unmarked) [2-Allyl-3-methyl-2-cyclopentene-1-one-4-yl pyrethrate, reference compound] |  |  | 173 s
9 | CC=CC(C)=CC1C(C(=O)OCN2C(=O)C3=C(CCCC3)C2=O)C1(C)C (centres unmarked) [Present compound (43), 3,4,5,6-Tetrahydrophthalimidomethyl 2',2'-dimethyl-3'-(2"-methyl-1",3"-pentadienyl)-cyclopropanecarboxylate] | 197 s |  | 
10 | C#CCc1ccc(C(C#C)OC(=O)C2C(C=C(C)C)C2(C)C)o1 (stereo not drawn) [5-Propargyl-α-ethynylfurfuryl chrysanthemate, reference compound] | 120 s | 260 µg/mL (≈ 838 µM) | 
11 | C#CCc1ccc(COC(=O)C2C(C=C(C)C=CC)C2(C)C)o1 (centres unmarked) [Present compound (39), 5-Propargylfurfuryl 2',2'-dimethyl-3'-(2"-methyl-1",3"-pentadienyl)-cyclopropanecarboxylate] |  |  | 114 s
12 | C=CCC1=C(C)C(OC(=O)C2C(C=C(C)C=CC)C2(C)C)CC1=O (centres unmarked) [Present compound (42), 2-Allyl-3-methyl-2-cyclopentene-1-one-4-yl 2',2'-dimethyl-3'-(2"-methyl-1",3"-pentadienyl)-cyclopropanecarboxylate] |  |  | 165 s
13 | C#CCc1ccc(C(C#C)OC(=O)C2C(C=C(C)C(=O)OC)C2(C)C)o1 (stereo not drawn) [5-Propargyl-α-ethynylfurfuryl pyrethrate, reference compound] |  | 820 µg/mL (≈ 2310 µM) | 
14 | CC(C)=CC1C(C(=O)OCN2C(=O)C3=C(CCCC3)C2=O)C1(C)C (centres unmarked) [3,4,5,6-Tetrahydrophthalimidomethyl chrysanthemate, reference compound] | 103 s |  | 
15 | C=CC=CC1C(C(=O)OC(C#N)c2cccc(Cc3ccccc3)c2)C1(C)C (stereo not drawn) [Present compound (62), 3-Benzyl-α-cyanobenzyl 2',2'-dimethyl-3'-(1",3"-butadienyl)-cyclopropanecarboxylate] | 144 s |  | 
16 | C#CCc1ccc(COC(=O)C2C(C=CC=C)C2(C)C)o1 (centres unmarked) [Present compound (64), 5-Propargylfurfuryl 2',2'-dimethyl-3' -(1",3"-butadienyl)-cyclopropanecarboxylate] |  |  | 98 s
17 | C=CC=CC1C(C(=O)OCN2C(=O)c3ccccc3C2=S)C1(C)C (centres unmarked) [Present compound (87), Monothiophthalimidomethyl 2',2'-dimethyl-3'-(1",3"-butadienyl)-cyclopropanecarboxylate] |  |  | 177 s

Row | Structure (SMILES) | KT50 (50 percent knock down time) [1, 2] | LC50 (house flies) | KT50 (50 percent knock down time) [1, 3]
18 | C=CC(C)=CC1C(C(=O)OCN2C(=O)C3=C(CC=CC3)C2=O)C1(C)C (centres unmarked) [Present compound (30), 3,6-Dihydrophthalimidomethyl 2',2'-dimethyl-3'-(2"-methyl-1",3"-butadienyl)-cyclopropanecarboxylate] | 89 s |  | 
19 | C#CCc1ccc(COC(=O)C2C(C=C(C)C=C)C2(C)C)o1 (centres unmarked) [Present compound (6), 5-Propargylfurfuryl 2',2'-dimethyl-3'-(2"-methyl-1",3"-butadienyl)-cyclopropanecarboxylate] |  |  | 105 s
20 | C=CC=CC1C(C(=O)OCN2C(=O)C3=C(CC=CC3)C2=O)C1(C)C (centres unmarked) [Present compound (88), 3,6-Dihydrophthalimidomethyl 2',2'-dimethyl-3'-(1",3"-butadienyl)-cyclopropanecarboxylate] | 79 s |  | 
21 | C#CCC1=C(C)C(OC(=O)C2C(C=C(C)C)C2(C)C)CC1=O (centres unmarked) [2-Propargyl-3-methyl-2-cyclopentene-1-one-4-yl chrysanthemate, reference compound] | 249 s |  | 
22 | C=CC=CC1C(C(=O)OCN2C(=O)C(C)=C(C)C2=O)C1(C)C (centres unmarked) [Present compound (89), Dimethylmaleimidomethyl 2,2-dimethyl-3-(1',3'-butadienyl)-cyclopropanecarboxylate] | 72 s |  | 
23 | CC(C)=CC1C(C(=O)OCN2C(=O)C(C)=C(C)C2=O)C1(C)C (centres unmarked) [Dimethylmaleimidomethyl chrysanthemate, reference compound] | 101 s |  | 
24 | C=CC(C)=CC1C(C(=O)OCN2C(=O)c3ccccc3C2=S)C1(C)C (centres unmarked) [Present compound (29), Monothiophthalimidomethyl 2,2-dimethyl-3-(2'-methyl-1',3'-butadienyl)-cyclopropanecarboxylate] |  |  | 182 s
25 | C=CCc1cc(C)c(COC(=O)C2C(C=C(C)C(=O)OC)C2(C)C)c(C)c1 (centres unmarked) [2,6-Dimethyl-4-allylbenzyl pyrethrate, reference compound] |  | 1420 µg/mL (≈ 3830 µM) | 
26 | C#CCc1ccc(COC(=O)C2C(C=C(C)C=C(C)C)C2(C)C)o1 (centres unmarked) [Present compound (45), 5-Propargylfurfuryl 2',2'-dimethyl-3'-(2",4"-dimethyl-1",3"-pentadienyl)-cyclopropanecarboxylate] |  |  | 117 s
27 | CC(C)=CC(C)=CC1C(C(=O)OCN2C(=O)C3=C(CCCC3)C2=O)C1(C)C (centres unmarked) [Present compound (49), 3,4,5,6-Tetrahydrophthalimidomethyl 2',2'-dimethyl-3'-(2",4"-dimethyl-1",3"-pentadienyl)-cyclopropanecarboxylate] | 86 s |  | 
28 | C=CC(C)=CC1C(C(=O)OCN2C(=O)C3=C(CCCC3)C2=O)C1(C)C (centres unmarked) [Present compound (27), 3,4,5,6-Tetrahydrophthalimidomethyl 2',2'-dimethyl-3'-(2"-methyl-1",3"-butadienyl)-cyclopropanecarboxylate] | 83 s |  | 
29 | C#CCC1=C(C)C(OC(=O)C2C(C=CC=C)C2(C)C)CC1=O (centres unmarked) [Present compound (83), 2-Propargyl-3-methyl-2-cyclopentene-1-one-4-yl 2',2'-dimethyl-3'-(1",3"-butadienyl)-cyclopropanecarboxylate] | 183 s |  | 
30 | C#CCc1ccc(COC(=O)C2C(C=C(C)C)C2(C)C)o1 (centres unmarked) [5-Propargylfurfuryl chrysanthemate, reference compound] |  |  | 132 s
31 | C=CC(C)=CC1C(C(=O)OCN2C(=O)C(C)=C(C)C2=O)C1(C)C (centres unmarked) [Present compound (31), Dimethylmaleimidomethyl 2,2-dimethyl-3-(2'-methyl-1',3'-butadienyl)-cyclopropanecarboxylate] | 80 s |  | 
32 | C=CC=CC1C(C(=O)OCN2C(=O)C3=C(CCCC3)C2=O)C1(C)C (centres unmarked) [Present compound (85), 3,4,5,6-Tetrahydrophthalimidomethyl 2',2'-dimethyl-3'-(1",3"-butadienyl)-cyclopropanecarboxylate] | 74 s |  | 
33 | CC=C(C)C=CC1C(C(=O)OCc2coc(Cc3ccccc3)c2)C1(C)C (centres unmarked) [Present compound (56), 5-Benzyl-3-furylmethyl 2',2'-dimethyl-3'-(3"-methyl-1",3"-pentadienyl)-cyclopropanecarboxylate] |  |  | 150 s
